Results: ChEMBL document CHEMBL1250462, “Affinity of aporphines for the human 5-HT2A receptor: insights from homology modeling and molecular docking studies” (Bioorg Med Chem, 2010)

Biological target: 5-hydroxytryptamine receptor 2A (Homo sapiens) (UniProt P28223)
Sequence (P28223 whole entry): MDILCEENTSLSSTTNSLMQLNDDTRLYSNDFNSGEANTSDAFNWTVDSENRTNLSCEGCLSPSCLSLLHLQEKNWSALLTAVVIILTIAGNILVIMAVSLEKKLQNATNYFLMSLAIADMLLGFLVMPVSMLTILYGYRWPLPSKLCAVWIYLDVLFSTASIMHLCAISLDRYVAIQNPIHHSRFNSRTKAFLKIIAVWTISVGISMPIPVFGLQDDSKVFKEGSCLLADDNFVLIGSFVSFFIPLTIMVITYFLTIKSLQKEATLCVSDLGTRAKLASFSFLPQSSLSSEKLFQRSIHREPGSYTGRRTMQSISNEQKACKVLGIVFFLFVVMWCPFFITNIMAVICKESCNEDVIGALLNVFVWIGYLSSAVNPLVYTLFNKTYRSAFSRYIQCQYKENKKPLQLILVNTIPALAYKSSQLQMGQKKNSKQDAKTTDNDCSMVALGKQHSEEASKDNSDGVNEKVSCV
Description: Binding affinity to 5HT2A

`COc1cc2c3c(c1OC)-c1cc4c(cc1CC3N(C(C)=O)CC2)OCO4` (stereo not drawn) and `COc1cc2c3c(c1OC)-c1cc4c(cc1CC3N(S(C)(=O)=O)CC2)OCO4` (stereo not drawn) cannot be ordered by Ke: greater than 10 µM for the first, greater than 10 µM for the second.

Work on `COc1cc2c3c(c1OCc1ccccc1)-c1cc4c(cc1CC3N(C)CC2)OCO4` (stereo not drawn) yielded a Ke of 4.6 µM.
